{"source": "patent US9333193B2", "about": "“Compositions and methods for treating tuberculosis” (priority 2010, dated 2016)", "key": {"M. tuberculosis": {"tested_on": "M. tuberculosis", "assay": "microbe, parasite or virus in culture", "type": "cell-based, Mycobacterium tuberculosis", "design": "% Inhibit growth, H37Rv / % Inhibit growth, Susceptible / % Inhibit growth, MDR / % Inhibit growth, XDR / inhibition: dose or concentration left out as unconfirmed", "details": "for % Inhibit growth, MDR: MDR strain; for % Inhibit growth, Susceptible: Susceptible strain; for % Inhibit growth, XDR: XDR strain; for % Inhibit growth, H37Rv: strain H37Rv; for inhibition: Mycobacterium tuberculosis"}, "[1]": {"tested_on": "Mycobacterium smegmatis mc2155", "assay": "Anti-mycobacterial activity of nitazoxanides, MIC in Middlebrook 7H9", "type": "cell-based", "details": "Middlebrook 7H9, 37° C.; for MIC: Mycolicibacterium smegmatis, MC2155, read-out: Minimal Inhibitory Concentration, M. smegmatis", "protocol": "(§1) (1) Strains: Mycobacterium smegmatis mc2155, Mycobacterium chelonae EOP-1, Mycobacterium marinum ATCC 927, Mycobacterium avium Va14(T), and Mycobacterium abscessus AAy-P-1).\n(§2) (2) Medium: Middlebrook 7H9 containing 0.5% (vol/vol) glycerol and 10% (vol/vol) oleic acid-albumin.\n(§3) (3) Incubation Temperature: 37° C., except M. marinum 30° C.\n(§4) (4) Nitazoxanides: Precipitates were present in wells of nitazoxanides with high concentrations (250-31 μg/mL) except for 162080, 162088, 16b2026, and 16b2031.\n(5) Decolorization: Almost all the yellow nitazoxanides, namely 16b1090, 16b1092 and 16b1093, 16b1094, 16b2023, 16b2025, and 16b2026 were decolorized by M. smegmatis strain mc2155. None of the other mycobacterial strains decolorized the compounds. Note that the compound numbers are also referred to herein with the prefix VPC.\n(§5) The strains used were Mycobacterium smegmatis mc2155, Mycobacterium chelonae EOP-1, Mycobacterium marinum ATCC 927, Mycobacterium avium Va14(T), and Mycobacterium abscessus AAy-P-1. The medium use was Middlebrook 7H9 containing 0.5% (vol/vol) glycerol and 10% (vol/vol) oleic acid-albumin. Incubation Temperature was 37° C., except for M. marinum at 30° C. For nitazoxanides, precipitates were present in wells of nitazoxanides with high concentrations (250-31 μg/mL) except for 162080, 162088, 16b2026, and 16b2031.\nDecolorization: Almost all the yellow nitazoxanides, namely 16b1090, 16b1092 and 16b1093, 16b1094, 16b2023, 16b2025, and 16b2026 were decolorized by M. smegmatis strain mc2155. None of the other mycobacterial strains decolorized the compounds."}, "[2]": {"tested_on": "Mycobacterium avium Va14(T)", "assay": "Anti-mycobacterial activity of nitazoxanides, MIC in Middlebrook 7H9", "type": "cell-based", "details": "Middlebrook 7H9, 37° C.; for MIC: Mycobacterium avium, read-out: Minimal Inhibitory Concentration, M. avium", "protocol": "as §1, §2, §3, §4, §5"}, "[3]": {"tested_on": "Mycobacterium marinum ATCC 927", "assay": "Anti-mycobacterial activity of nitazoxanides, MIC in Middlebrook 7H9", "type": "cell-based", "details": "Middlebrook 7H9, 30° C.; for MIC: Mycobacterium marinum, ATCC927, read-out: Minimal Inhibitory Concentration, M. marinum", "protocol": "as §1, §2, §3, §4, §5"}, "[4]": {"tested_on": "Mycobacterium chelonae EOP-1", "assay": "Anti-mycobacterial activity of nitazoxanides, MIC in Middlebrook 7H9", "type": "cell-based", "details": "Middlebrook 7H9, 37° C.; for MIC: read-out: Minimal Inhibitory Concentration, M. chelonae", "protocol": "as §1, §2, §3, §4, §5"}, "[5]": {"tested_on": "Mycobacterium abscessus AAy-P-1", "assay": "Anti-mycobacterial activity of nitazoxanides, MIC in Middlebrook 7H9", "type": "cell-based", "details": "Middlebrook 7H9, 37° C.; for MIC: Mycobacteroides abscessus, AAYP1, read-out: Minimal Inhibitory Concentration, M. abscessus", "protocol": "as §1, §2, §3, §4, §5"}, "[6]": {"tested_on": "Mycobacterium tuberculosis", "details": "agar proportion"}, "[7]": {"tested_on": "Mycobacterium tuberculosis", "assay": "microbe, parasite or virus in culture", "details": "agar proportion"}, "[8]": {"details": "read-out: % Inhibit growth, MDR"}, "[9]": {"details": "read-out: % Inhibit growth, XDR"}}, "note": "Like-named read-outs stand apart in the source and are kept apart here."}
{"smiles": "O=C(Nc1ncc([N+](=O)[O-])s1)c1cc2ccccc2s1", "note": "[VPC161180]", "values": [{"measurement": "% Inhibit growth, MDR", "setting": "M. tuberculosis; agar proportion method", "result": 0, "unit": "%"}, {"measurement": "% Inhibit growth, Susceptible", "setting": "M. tuberculosis; agar proportion method", "result": 0, "unit": "%"}, {"measurement": "% Inhibit growth, XDR", "setting": "M. tuberculosis; agar proportion method", "result": 50, "unit": "%"}, {"measurement": "% Inhibit growth, H37Rv", "setting": "M. tuberculosis; agar proportion method", "result": 80, "unit": "%"}]}
{"smiles": "CCCCCC(=O)Nc1sc([N+](=O)[O-])cc1[N+](=O)[O-]", "note": "[VPC16b1089]", "values": [{"measurement": "Minimal Inhibitory Concentration, M. smegmatis", "setting": "[1]", "result": 125, "unit": "µg/mL"}, {"measurement": "% Inhibit growth, MDR", "setting": "M. tuberculosis; agar proportion method", "result": 0, "unit": "%"}, {"measurement": "% Inhibit growth, Susceptible", "setting": "M. tuberculosis; agar proportion method", "result": 0, "unit": "%"}, {"measurement": "% Inhibit growth, XDR", "setting": "M. tuberculosis; agar proportion method", "result": 0, "unit": "%"}, {"measurement": "% Inhibit growth, H37Rv", "setting": "M. tuberculosis; agar proportion method", "result": 0, "unit": "%"}, {"measurement": "Minimal Inhibitory Concentration, M. avium", "setting": "[2]", "result": 63, "unit": "µg/mL"}, {"measurement": "Minimal Inhibitory Concentration, M. marinum", "setting": "[3]", "result": 16, "unit": "µg/mL"}, {"measurement": "Minimal Inhibitory Concentration, M. chelonae", "setting": "[4]", "result": 31, "unit": "µg/mL"}, {"measurement": "Minimal Inhibitory Concentration, M. abscessus", "setting": "[5]", "result": "4.", "unit": "μg/mL"}]}
{"smiles": "O=C(Nc1sc([N+](=O)[O-])cc1[N+](=O)[O-])c1cc(C(F)(F)F)ccc1Cl", "note": "[VPC16b2026, 2-Chloro-N-(3,5-dinitrothiophen-2-yl)-5-(trifluoromethyl)benzamide]", "values": [{"measurement": "MIC", "setting": "[1]", "result": 31, "unit": "mg/L"}, {"measurement": "MIC", "setting": "[2]", "result": 16, "unit": "mg/L"}, {"measurement": "MIC", "setting": "[3]", "result": 8, "unit": "mg/L"}, {"measurement": "MIC", "setting": "[4]", "result": 4, "unit": "mg/L"}, {"measurement": "MIC", "setting": "[5]", "result": 0.25, "unit": "mg/L"}]}
{"smiles": "O=C(Nc1sc([N+](=O)[O-])cc1[N+](=O)[O-])c1cccc(C(F)(F)F)c1", "note": "[VPC16b1092]", "values": [{"measurement": "Minimal Inhibitory Concentration, M. smegmatis", "setting": "[1]", "result": 31, "unit": "µg/mL"}, {"measurement": "% Inhibit growth, MDR", "setting": "M. tuberculosis; agar proportion method", "result": 100, "unit": "%"}, {"measurement": "% Inhibit growth, Susceptible", "setting": "M. tuberculosis; agar proportion method", "result": 100, "unit": "%"}, {"measurement": "% Inhibit growth, XDR", "setting": "M. tuberculosis; agar proportion method", "result": 100, "unit": "%"}, {"measurement": "Potency against M. tuberculosis in words (Table 1)", "setting": "M. tuberculosis; agar proportion method", "result": "most potent"}, {"measurement": "% Inhibit growth, H37Rv", "setting": "M. tuberculosis; agar proportion method", "result": 100, "unit": "%"}, {"measurement": "Minimal Inhibitory Concentration, M. avium", "setting": "[2]", "result": 8, "unit": "µg/mL"}, {"measurement": "Minimal Inhibitory Concentration, M. marinum", "setting": "[3]", "result": 4, "unit": "µg/mL"}, {"measurement": "Minimal Inhibitory Concentration, M. chelonae", "setting": "[4]", "result": 4, "unit": "µg/mL"}, {"measurement": "Minimal Inhibitory Concentration, M. abscessus", "setting": "[5]", "result": 0.25, "unit": "µg/mL"}, {"measurement": "MIC", "setting": "[6]; isolate 234 (MDR-TB)", "result": 2000, "unit": "mg/L"}, {"measurement": "MIC", "setting": "[6]; isolate 283 (susceptible)", "result": 2000, "unit": "mg/L"}, {"measurement": "MIC", "setting": "[6]; isolate 565 (MDR-TB)", "result": 2000, "unit": "mg/L"}, {"measurement": "MIC", "setting": "[6]; isolate 694 (MDR-TB)", "result": 1000, "unit": "mg/L"}, {"measurement": "MIC", "setting": "[6]; isolate 750 (MDR-TB)", "result": 2000, "unit": "mg/L"}, {"measurement": "MIC", "setting": "[6]; isolate 823 (XDR-TB)", "result": 2000, "unit": "mg/L"}, {"measurement": "MIC", "setting": "[6]; isolate 971 (MDR-TB)", "result": 2000, "unit": "mg/L"}, {"measurement": "MIC", "setting": "[6]; isolate H37Rv (Reference)", "result": 2000, "unit": "mg/L"}]}
{"smiles": "O=C(Nc1ncc([N+](=O)[O-])s1)c1ccc(Cl)c(C(F)(F)F)c1", "note": "[VPC16a1060, 4-Chloro-N-(5-nitrothiazol-2-yl)-3-(trifluoromethyl)benzamide]", "values": [{"measurement": "inhibition", "setting": "M. tuberculosis; [8]", "result": 98, "unit": "%"}, {"measurement": "inhibition", "setting": "M. tuberculosis; [9]", "result": 90, "unit": "%"}]}
{"smiles": "NNC(=O)c1ccncc1", "note": "[Isoniazid, reference compound]", "values": [{"measurement": "MIC", "setting": "[7]; H37RV, isolate H37Rv (Reference)", "result": "≤ 125", "unit": "mg/L"}, {"measurement": "MIC", "setting": "[7]; isolate 234 (MDR-TB)", "result": 16000, "unit": "mg/L"}, {"measurement": "MIC", "setting": "[7]; isolate 283 (susceptible)", "result": "≤ 125", "unit": "mg/L"}, {"measurement": "MIC", "setting": "[7]; isolate 565 (MDR-TB)", "result": 8000, "unit": "mg/L"}, {"measurement": "MIC", "setting": "[7]; isolate 694 (MDR-TB)", "result": 16000, "unit": "mg/L"}, {"measurement": "MIC", "setting": "[7]; isolate 750 (MDR-TB)", "result": 8000, "unit": "mg/L"}, {"measurement": "MIC", "setting": "[7]; isolate 823 (XDR-TB)", "result": 8000, "unit": "mg/L"}, {"measurement": "MIC", "setting": "[7]; isolate 971 (MDR-TB)", "result": 4000, "unit": "mg/L"}]}
{"smiles": "CC(C)(C)OC(=O)Nc1ccccc1C(=O)Nc1ncc([N+](=O)[O-])s1", "note": "[VPC162047, tert-Butyl 2-(5-nitrothiazol-2-ylcarbamoyl)phenylcarbamate]", "values": [{"measurement": "inhibition", "setting": "M. tuberculosis; [8]", "result": 92, "unit": "%"}, {"measurement": "inhibition", "setting": "M. tuberculosis; [9]", "result": 50, "unit": "%"}]}
{"smiles": "O=C(Nc1nc(Cl)c([N+](=O)[O-])s1)c1cccc(C(F)(F)F)c1", "note": "[VPC162088]", "values": [{"measurement": "MIC", "setting": "[1]", "result": 31, "unit": "mg/L"}, {"measurement": "inhibition", "setting": "M. tuberculosis; [8]", "result": 90, "unit": "%"}, {"measurement": "inhibition", "setting": "M. tuberculosis; [9]", "result": 70, "unit": "%"}, {"measurement": "MIC", "setting": "[2]", "result": 250, "unit": "mg/L"}, {"measurement": "MIC", "setting": "[3]", "result": 31, "unit": "mg/L"}, {"measurement": "MIC", "setting": "[4]", "result": 63, "unit": "mg/L"}, {"measurement": "MIC", "setting": "[5]", "result": 0.5, "unit": "mg/L"}]}
